Strand notation (5' to 3'): a small letter for the sugar, then the base; units joined by * are phosphorothioate-linked, units joined directly phosphodiester-linked; [ ] holds rarer units or linkages, { } end groups; capitals alone tell only the bases. e = 2'-O-(2-methoxyethyl) (MOE); [5mC] = 5-methylcytosine; d = 2'-deoxy (DNA)
Key:
Mouse B7-1 mRNA = Mouse B7-1 mRNA expression, screened as in Example 4; type: cell-based; design: % mRNA INHIBITION: concentration or dose not given beside the values; conditions: Table 10
Mouse B7-2 mRNA = Mouse B7-2 mRNA expression, screened as in Example 4; type: cell-based; design: % mRNA INHIBITION: concentration or dose not given beside the values; conditions: for % mRNA INHIBITION: screened as in Example 4; for % mRNA EXPRESSION: screened as in Example 4, basal = 100.0%
Method: For ribonuclease protection assays, cells were harvested 18 hours after completion of oligonucleotide treatment using a Totally RNA™ kit (Ambion, Austin, Tex.). The probes for the assay were generated from plasmids pcB7-2 (linearized by digestion with Bgl II) and pTRI-b-actin (Ambion Inc., Austin, Tex.). In vitro transcription of the linearized plasmid from the SP6 promoter was performed in the presence of α-^32P-UTP (800 Ci/mmole) yielding an antisense RNA complementary to the 3′ end of B7-2 (position 1044-1391). The probe was gel-purified after treatment with DNase I to remove DNA template. Ribonuclease protection assays were carried out using an RPA II™ kit (Ambion) according to the manufacturer's directions. Total RNA (5 μg) was hybridized overnight, at 42° C., with 10^5 cpm of the B7-2 probe or a control beta-actin probe. The hybridization reaction was then treated, at 37° C. for 30 minutes, with 0.4 units of RNase A and 2 units of RNase T1. Protected RNA was precipitated, resuspended in 10 μL of gel loading buffer and electrophoresed on a 6% acrylamide gel with 50% w/v urea at 20 W. The gel was then exposed and the lanes quantitated using a PhosphorImager (Molecular Dynamics, Sunnyvale, Calif.) essentially according to the manufacturer's instructions.
Oligonucleotides were screened as described in Example 4.

| Substance | % mRNA EXPRESSION (Mouse B7-1 mRNA) | % mRNA INHIBITION (Mouse B7-1 mRNA) | % mRNA INHIBITION (Mouse B7-2 mRNA) | % mRNA EXPRESSION (Mouse B7-2 mRNA) |
| --- | --- | --- | --- | --- |
| 18109 (antisense e[5mC]*eA*eG*e[5mC]*eA*d[5mC]*dA*dA*dA*dG*dA*dG*dA*dA*dG*eA*eA*eT*eG*eA) [compound 18109] | 45.5% | 54.5% |  |  |
| 18108 (antisense eT*eG*eG*eG*eG*dA*dA*dA*dG*d[5mC]*d[5mC]*dA*dG*dG*dA*eA*eT*e[5mC]*eT*eA) [compound 18108] | 82.0% | 18.0% |  |  |
| 18084 (antisense eG*e[5mC]*eT*eG*e[5mC]*d[5mC]*dT*dA*d[5mC]*dA*dG*dG*dA*dG*d[5mC]*e[5mC]*eA*e[5mC]*eT*e[5mC]) [compound 18084] |  |  | 63.6% | 36.4% |
| 18107 (antisense eT*eG*eG*eA*eG*d[5mC]*dT*dT*dA*dG*dG*d[5mC]*dA*d[5mC]*d[5mC]*eT*e[5mC]*e[5mC]*eT*eA) [compound 18107] | 58.0% | 42.0% |  |  |
| 18112 (antisense eG*e[5mC]*eA*eG*eG*dT*dA*dA*dT*d[5mC]*d[5mC]*dT*dT*dT*dT*eA*eG*eT*eG*eT) [compound 18112] | 42.0% | 58.0% |  |  |
| 18102 (antisense e[5mC]*e[5mC]*eT*eT*e[5mC]*dA*d[5mC]*dT*d[5mC]*dT*dG*d[5mC]*dA*dT*dT*eT*eG*eG*eT*eT) [compound 18102] |  |  | 66.2% | 33.8% |
| 18103 (antisense eT*eG*e[5mC]*eA*eT*dG*dT*dT*dA*dT*d[5mC]*dA*d[5mC]*d[5mC]*dA*eT*eA*e[5mC]*eT*e[5mC]) [compound 18103] |  |  | 69.8% | 30.2% |
| 18106 (antisense TCGAGAAACAGAGATGTAGA; listed as DNA, chemistry not fully specified) [compound 18106] | 51.0% | 49.0% |  |  |
| 18087 (antisense eA*eG*e[5mC]*eT*eT*dG*d[5mC]*dG*dT*d[5mC]*dT*d[5mC]*d[5mC]*dA*d[5mC]*eG*eG*eA*eA*eA) [compound 18087] |  |  | 57.9% | 42.1% |
| 18088 (antisense eT*e[5mC]*eA*e[5mC]*eA*d[5mC]*dT*dA*dT*d[5mC]*dA*dA*dG*dT*dT*eT*e[5mC]*eT*e[5mC]*eT) [compound 18088] |  |  | 47.7% | 52.3% |
| 18093 (antisense eG*eG*e[5mC]*eT*eG*dT*dT*dG*dG*dA*dG*dA*dT*dA*d[5mC]*eT*eG*eA*eA*e[5mC]) [compound 18093] |  |  | 67.3% | 32.7% |
| 18098 (antisense eG*eG*eA*eT*eT*dG*d[5mC]*d[5mC]*dA*dA*dG*d[5mC]*d[5mC]*d[5mC]*dA*eT*eG*eG*eT*eG) [compound 18098] |  |  | 67.8% | 32.2% |
| 18122 (antisense eA*eG*eG*e[5mC]*e[5mC]*d[5mC]*dA*dG*d[5mC]*dA*dA*dA*d[5mC]*dT*dT*eG*e[5mC]*e[5mC]*e[5mC]*eG) [compound 18122] | 42.0% | 58.0% |  |  |
| 18120 (antisense eT*e[5mC]*e[5mC]*eA*e[5mC]*dT*dT*d[5mC]*dA*dG*dT*d[5mC]*dA*dT*d[5mC]*eA*eA*eG*e[5mC]*eA) [compound 18120] | 26.7% | 73.3% |  |  |
| 18105 (antisense eT*eG*eG*e[5mC]*eA*dT*d[5mC]*d[5mC]*dA*d[5mC]*d[5mC]*d[5mC]*dG*dG*d[5mC]*eA*eG*eA*eT*eG) [compound 18105] | 32.0% | 68.0% |  |  |
| 18101 (antisense eT*eT*eT*eT*eG*dT*dA*dT*dA*dA*dA*dA*d[5mC]*dA*dA*eT*e[5mC]*eA*eT*eA) [compound 18101] |  |  | 11.1% | 88.9% |

| Substance | % mRNA EXPRESSION (Mouse B7-1 mRNA) | % mRNA INHIBITION (Mouse B7-1 mRNA) | % mRNA INHIBITION (Mouse B7-2 mRNA) | % mRNA EXPRESSION (Mouse B7-2 mRNA) |
| --- | --- | --- | --- | --- |
| 18092 (antisense e[5mC]*eA*eT*e[5mC]*eT*dT*d[5mC]*dT*dT*dA*dG*dG*dT*dT*dT*e[5mC]*eG*eG*eG*eT) [compound 18092] |  |  | 41.1% | 58.9% |
| 18111 (antisense eA*eA*eG*eT*e[5mC]*d[5mC]*dG*dG*dT*dT*d[5mC]*dT*dT*dA*dT*eA*e[5mC]*eT*e[5mC]*eG) [compound 18111] | 38.0% | 62.0% |  |  |
| 18123 (antisense eA*eA*e[5mC]*eG*eG*d[5mC]*dA*dA*dG*dG*d[5mC]*dA*dG*d[5mC]*dA*eA*eT*eA*e[5mC]*e[5mC]) [compound 18123] | 42.0% | 58.0% |  |  |
| 18117 (antisense e[5mC]*eT*eG*eT*eT*dG*dT*dT*dT*dG*dT*dT*dT*d[5mC]*dT*e[5mC]*eT*eG*e[5mC]*eT) [compound 18117] | 46.7% | 53.3% |  |  |
| 18085 (antisense eT*e[5mC]*eA*eA*eG*dT*d[5mC]*d[5mC]*dG*dT*dG*d[5mC]*dT*dG*d[5mC]*e[5mC]*eT*eA*e[5mC]*eA) [compound 18085] |  |  | 65.0% | 35.0% |
| 18099 (antisense eG*e[5mC]*eA*eA*eT*dT*dT*dG*dG*dG*dG*dT*dT*d[5mC]*dA*eA*eG*eT*eT*e[5mC]) [compound 18099] |  |  | 33.2% | 66.8% |
| 18115 (antisense eA*e[5mC]*eT*eG*e[5mC]*dG*d[5mC]*d[5mC]*dG*dA*dA*dT*d[5mC]*d[5mC]*dT*eG*e[5mC]*e[5mC]*e[5mC]*e[5mC]) [compound 18115] | 33.5% | 66.5% |  |  |
| 18094 (antisense eG*eG*eG*eA*eA*dT*dG*dA*dA*dA*dG*dA*dG*dA*dG*eA*eG*eG*e[5mC]*eT) [compound 18094] |  |  | 36.2% | 63.8% |
| 18118 (antisense eT*eG*eT*eT*e[5mC]*dA*dG*d[5mC]*dT*dA*dA*dT*dG*d[5mC]*dT*eT*e[5mC]*eT*eT*e[5mC]) [compound 18118] | 31.7% | 68.3% |  |  |
| 18090 (antisense eG*eT*eG*eA*eA*dG*dT*d[5mC]*dG*dT*dA*dG*dA*dG*dT*e[5mC]*e[5mC]*eA*eG*eT) [compound 18090] |  |  | 63.4% | 36.6% |
| 18100 (antisense e[5mC]*eA*eA*eT*e[5mC]*dA*dG*d[5mC]*dT*dG*dA*dG*dA*dA*d[5mC]*eA*eT*eT*eT*eT) [compound 18100] |  |  | 32.8% | 67.2% |
| 18104 (antisense eA*eG*eA*eG*eA*dA*dA*d[5mC]*dT*dA*dG*dT*dA*dA*dG*eA*eG*eT*e[5mC]*eT) [compound 18104] | 60.0% | 40.0% |  |  |
| 18095 (antisense eA*e[5mC]*eA*eT*eA*d[5mC]*dA*dA*dT*dG*dA*dT*dG*dA*dG*e[5mC]*eA*eG*e[5mC]*eA) [compound 18095] |  |  | 65.7% | 34.3% |
| 18086 (antisense eG*eT*e[5mC]*eT*eA*d[5mC]*dA*dG*dG*dA*dG*dT*d[5mC]*dT*dG*eG*eT*eT*eG*eT) [compound 18086] |  |  | 59.9% | 40.1% |
| 18121 (antisense eT*eG*e[5mC]*eT*e[5mC]*dA*dA*dT*dA*d[5mC]*dT*d[5mC]*dT*d[5mC]*dT*eT*eT*eT*eT*eA) [compound 18121] | 114.0% |  |  |  |
